Source: patent US11261194B2, “Production method of diol” (MITSUBISHI GAS CHEMICAL COMPANY, INC., priority 2017, dated 2022)
Values after ≈ are worked out from the molar mass of the structure shown.

Assay: solubility in water at 25° C.
Assay type: physicochemical

Row | Compound | solubility [mg/mL] | solubility in water at 25° C. [mg/mL]
1 | O=C1CCC(=O)CC1 [1,4-cyclohexanedione] | 750 (≈ 6690 mM) | 
2 | CC1(CO)COC2(CCC3(CC2)OCC(C)(CO)CO3)OC1 (stereo not shown) [compound B] |  | ≤ 0.5
3 | CC(CO)(CO)CO [trimethylolethane] |  | ≥ 100
4 | CCC1(CO)COC2(CCC3(CC2)OCC(CC)(CO)CO3)OC1 (stereo not shown) [compound A] |  | ≤ 0.5
